# Measured values from ChEMBL document CHEMBL1201862, “PubChem BioAssay data set” (2004).
# The source made the active and inactive calls.
# Tests used:
# [1] = inhibitors of firefly luciferase expression or activity, dose response, H4 neuroglioma cells, luminescence (AID 1990); type: functional, cell-based
# [2] = Luminescence Cell-Based Dose Response HTS to Identify Inhibitors of 5'UTR Stem-Loop Driven Prion Protein mRNA Translation in H4 Neuroglioblastoma Cells. [Related pubchem assays: 1827 (Project Summary), 1813 (Primary HTS)]; type: functional
# [3] = inhibitors of SNCA 5'UTR-driven reporter translation, confirmation, H4 neuroglioma cells, luminescence (AID 1988); type: functional, cell-based
# [4] = Shn3 3'UTR reporter inhibitors, dose response, cell-based, Clone20 osteoblasts, firefly luciferase, cherry-picked (AID 624132); type: functional;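 note: firefly luciferase luminescence from reporter carrying the Shn3 3'UTR in osteoblasts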
# [5] = control 3'UTR Renilla luciferase suppression, dose response, counter-screen for Shn3 inhibitor project, cell-based, Clone20-Shn3RL, cherry-picked (AID 624133); type: functional
# [6] = target: T1, Zinc finger protein mex-5 (Caenorhabditis elegans, UniProt Q9XUB2); assay: MEX-5/TCR-2 RNA interaction inhibitors, dose response, biochemical, C. elegans, fluorescence polarization (AID 1960)
# T1 sequence (Q9XUB2 whole entry): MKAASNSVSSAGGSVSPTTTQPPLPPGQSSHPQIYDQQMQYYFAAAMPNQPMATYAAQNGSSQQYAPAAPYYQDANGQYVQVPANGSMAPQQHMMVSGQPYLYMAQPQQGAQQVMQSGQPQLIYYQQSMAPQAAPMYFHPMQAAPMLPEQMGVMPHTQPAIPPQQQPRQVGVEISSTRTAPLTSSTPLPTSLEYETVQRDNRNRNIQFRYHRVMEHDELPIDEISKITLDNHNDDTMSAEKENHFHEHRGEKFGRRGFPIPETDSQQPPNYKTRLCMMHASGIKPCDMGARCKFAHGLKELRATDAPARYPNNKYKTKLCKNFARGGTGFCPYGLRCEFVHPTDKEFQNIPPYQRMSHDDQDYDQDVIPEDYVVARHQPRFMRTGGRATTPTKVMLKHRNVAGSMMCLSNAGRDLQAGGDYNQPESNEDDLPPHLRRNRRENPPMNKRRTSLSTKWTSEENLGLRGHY
# [7] = target: T2, RNA-binding protein pos-1 (Caenorhabditis elegans, UniProt G5EF15); assay: inhibitors of POS-1/mex-3 RNA binding, dose response, biochemical, fluorescence polarization (AID 1964);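 note: purified POS-1 fused to maltose binding protein made in E. coli; potency of compounds blocking POS-1 binding to fluorescent RNA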
# T2 sequence (G5EF15 whole entry): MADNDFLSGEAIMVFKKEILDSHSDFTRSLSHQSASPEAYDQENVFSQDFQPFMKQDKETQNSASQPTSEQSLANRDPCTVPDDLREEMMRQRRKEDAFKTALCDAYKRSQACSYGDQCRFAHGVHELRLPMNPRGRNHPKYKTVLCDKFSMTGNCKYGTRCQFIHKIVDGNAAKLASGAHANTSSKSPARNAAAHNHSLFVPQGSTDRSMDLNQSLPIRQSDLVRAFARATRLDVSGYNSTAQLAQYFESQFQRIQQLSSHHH
# [8] = target: T3, Cytochrome P450 3A4 (Homo sapiens, UniProt P08684)
# T3 sequence (P08684 whole entry): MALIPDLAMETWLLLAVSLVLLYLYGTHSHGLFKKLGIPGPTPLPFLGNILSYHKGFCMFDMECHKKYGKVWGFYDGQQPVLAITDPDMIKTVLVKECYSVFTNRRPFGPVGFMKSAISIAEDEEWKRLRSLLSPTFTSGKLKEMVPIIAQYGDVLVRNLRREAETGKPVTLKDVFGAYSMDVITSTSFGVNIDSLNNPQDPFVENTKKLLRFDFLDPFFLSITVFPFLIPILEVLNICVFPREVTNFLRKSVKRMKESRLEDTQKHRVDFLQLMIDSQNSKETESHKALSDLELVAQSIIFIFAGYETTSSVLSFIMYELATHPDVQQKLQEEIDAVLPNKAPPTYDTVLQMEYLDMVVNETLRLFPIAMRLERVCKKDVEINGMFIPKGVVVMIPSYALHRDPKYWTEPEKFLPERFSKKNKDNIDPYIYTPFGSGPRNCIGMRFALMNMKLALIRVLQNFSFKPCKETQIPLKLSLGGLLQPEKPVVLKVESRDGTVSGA
# [9] = target: Cytochrome P450 2C9 (Homo sapiens, UniProt P11712)
# Cytochrome P450 2C9, sequence (P11712 whole entry): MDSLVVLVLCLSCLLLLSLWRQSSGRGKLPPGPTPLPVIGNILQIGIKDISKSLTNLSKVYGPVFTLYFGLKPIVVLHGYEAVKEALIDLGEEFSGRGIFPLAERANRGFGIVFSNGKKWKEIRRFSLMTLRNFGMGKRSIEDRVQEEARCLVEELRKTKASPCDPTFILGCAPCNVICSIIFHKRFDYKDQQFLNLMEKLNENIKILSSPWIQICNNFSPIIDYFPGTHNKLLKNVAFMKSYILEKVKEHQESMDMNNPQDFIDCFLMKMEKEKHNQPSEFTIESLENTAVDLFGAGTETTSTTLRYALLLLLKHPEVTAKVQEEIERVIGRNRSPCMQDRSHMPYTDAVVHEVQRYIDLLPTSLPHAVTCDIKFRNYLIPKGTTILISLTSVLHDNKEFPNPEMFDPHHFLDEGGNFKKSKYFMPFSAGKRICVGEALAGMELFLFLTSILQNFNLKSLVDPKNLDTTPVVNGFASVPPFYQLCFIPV
# [10] = target: T4, High affinity choline transporter 1 (Homo sapiens, UniProt Q9GZV3); assay: CHT inhibitors, dose response, cell-based, 5-point CRC, membrane potential dye (AID 504840); type: functional
# T4 sequence (Q9GZV3 whole entry): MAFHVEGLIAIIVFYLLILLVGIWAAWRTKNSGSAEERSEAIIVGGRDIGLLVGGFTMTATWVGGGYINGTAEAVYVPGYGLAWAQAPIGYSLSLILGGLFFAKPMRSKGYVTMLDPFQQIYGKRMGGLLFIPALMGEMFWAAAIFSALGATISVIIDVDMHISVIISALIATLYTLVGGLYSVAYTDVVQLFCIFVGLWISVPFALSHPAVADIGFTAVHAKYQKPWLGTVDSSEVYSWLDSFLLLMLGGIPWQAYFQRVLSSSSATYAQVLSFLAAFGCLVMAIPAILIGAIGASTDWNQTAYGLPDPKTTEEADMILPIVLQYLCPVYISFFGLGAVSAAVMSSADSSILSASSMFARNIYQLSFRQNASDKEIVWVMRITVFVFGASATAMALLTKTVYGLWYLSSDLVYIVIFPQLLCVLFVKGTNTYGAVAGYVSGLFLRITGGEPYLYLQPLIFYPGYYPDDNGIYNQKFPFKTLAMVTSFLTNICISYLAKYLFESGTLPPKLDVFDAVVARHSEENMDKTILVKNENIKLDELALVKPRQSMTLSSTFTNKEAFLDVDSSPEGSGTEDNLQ
# [11] = target: Genome polyprotein (dengue virus type 2, UniProt P29990); assay: Dengue-2 NS5 methyltransferase inhibitors, primary screen, biochemical, confirmation dose response (AID 588689); type: functional
# Genome polyprotein, sequence (P29990 2492-3391 limits assumed): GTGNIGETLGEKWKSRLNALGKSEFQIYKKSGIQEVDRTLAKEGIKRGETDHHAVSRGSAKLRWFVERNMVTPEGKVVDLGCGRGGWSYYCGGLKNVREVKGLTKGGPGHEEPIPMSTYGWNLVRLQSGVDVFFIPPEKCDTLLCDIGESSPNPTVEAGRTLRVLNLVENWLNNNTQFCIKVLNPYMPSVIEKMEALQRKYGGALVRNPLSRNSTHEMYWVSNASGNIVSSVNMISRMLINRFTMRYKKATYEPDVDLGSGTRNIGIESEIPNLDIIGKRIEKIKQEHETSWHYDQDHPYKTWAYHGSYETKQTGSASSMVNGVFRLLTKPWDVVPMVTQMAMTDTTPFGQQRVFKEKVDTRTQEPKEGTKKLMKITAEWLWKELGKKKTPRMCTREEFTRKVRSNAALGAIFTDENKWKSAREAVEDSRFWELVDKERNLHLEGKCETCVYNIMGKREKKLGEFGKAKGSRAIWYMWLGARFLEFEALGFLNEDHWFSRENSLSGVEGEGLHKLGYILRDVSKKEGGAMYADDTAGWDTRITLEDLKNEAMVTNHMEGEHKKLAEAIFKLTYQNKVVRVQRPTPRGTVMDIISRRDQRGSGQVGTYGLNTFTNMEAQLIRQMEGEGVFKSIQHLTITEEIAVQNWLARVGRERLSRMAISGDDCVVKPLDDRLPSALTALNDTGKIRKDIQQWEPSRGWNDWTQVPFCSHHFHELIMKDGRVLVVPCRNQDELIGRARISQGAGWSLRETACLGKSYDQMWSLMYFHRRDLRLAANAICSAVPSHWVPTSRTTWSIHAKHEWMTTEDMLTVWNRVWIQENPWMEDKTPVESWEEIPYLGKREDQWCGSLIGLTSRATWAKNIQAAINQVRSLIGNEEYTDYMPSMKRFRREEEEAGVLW
# [12] = Luminescence Cell-Based Dose Confirmation HTS to Identify Inhibitors of Platelet Dense Granule Release. [Related pubchem assays: 1663 (Primary HTS), 1678 (Summary of Project)]; type: functional
# [13] = target: Luciferin 4-monooxygenase (Photinus pyralis, UniProt P08659); assay: firefly luciferase enzyme inhibitors, dose response, biochemical, luminescence (AID 1891)
# Luciferin 4-monooxygenase, sequence (P08659 whole entry): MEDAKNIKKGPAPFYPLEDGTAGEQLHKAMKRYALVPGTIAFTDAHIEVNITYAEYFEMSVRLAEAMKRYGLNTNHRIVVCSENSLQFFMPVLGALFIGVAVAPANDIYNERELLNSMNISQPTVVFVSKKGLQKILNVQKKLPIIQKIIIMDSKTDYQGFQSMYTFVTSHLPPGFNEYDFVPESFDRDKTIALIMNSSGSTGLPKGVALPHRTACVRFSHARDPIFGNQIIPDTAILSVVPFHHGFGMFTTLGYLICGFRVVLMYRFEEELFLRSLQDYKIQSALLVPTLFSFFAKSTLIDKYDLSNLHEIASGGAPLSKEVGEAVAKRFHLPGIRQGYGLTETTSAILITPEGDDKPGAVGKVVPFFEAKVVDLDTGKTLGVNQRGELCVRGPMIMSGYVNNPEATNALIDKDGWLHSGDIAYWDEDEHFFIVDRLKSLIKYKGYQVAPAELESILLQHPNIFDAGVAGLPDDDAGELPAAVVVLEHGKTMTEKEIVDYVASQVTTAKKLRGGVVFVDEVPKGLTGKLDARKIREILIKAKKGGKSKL
# [14] = growth suppression of PTEN-null colon cells, dose response, cell-based, HCT116 PTEN knockout (AID 1047); type: functional;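 note: HCT116 colon tumor cells with PTEN knocked out; cells exposed to compound for 60 hours before readout; potency for loss of cell viability measured by luminescence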
# [15] = growth suppression of beta-catenin-knockout colon cells, dose response, cell-based, HCT116, human colon tumor (AID 1045); type: functional;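 note: HCT116 colon tumor cells with beta catenin knocked out; cells exposed to compound for 60 hours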
# [16] = target: FAD-linked sulfhydryl oxidase ALR (Homo sapiens, UniProt P55789); assay: inhibitors of human ALR sulfhydryl oxidase, dose response, biochemical, H2O2 detection, luminescence, cherry-pick (AID 493248)
# FAD-linked sulfhydryl oxidase ALR, sequence (P55789 whole entry): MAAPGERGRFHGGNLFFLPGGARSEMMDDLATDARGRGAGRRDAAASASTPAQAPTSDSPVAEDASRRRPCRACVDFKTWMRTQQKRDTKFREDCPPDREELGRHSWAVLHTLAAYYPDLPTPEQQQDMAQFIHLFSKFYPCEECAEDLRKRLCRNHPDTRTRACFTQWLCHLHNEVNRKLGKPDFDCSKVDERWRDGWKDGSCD
# [17] = target: Nonstructural protein 1 (Influenza A virus, UniProt Q194T2); type: functional, Influenza A virus (A/California/07/2009(H1N1))
# Nonstructural protein 1, sequence (Q194T2 whole entry): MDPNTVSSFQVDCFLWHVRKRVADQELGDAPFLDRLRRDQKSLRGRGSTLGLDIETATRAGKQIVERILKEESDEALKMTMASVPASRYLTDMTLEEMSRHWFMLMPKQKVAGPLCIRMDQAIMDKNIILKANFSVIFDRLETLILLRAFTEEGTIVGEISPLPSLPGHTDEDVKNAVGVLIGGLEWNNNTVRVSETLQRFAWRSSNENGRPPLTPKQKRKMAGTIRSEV
# [18] = target: T3, Cytochrome P450 3A4; conditions: Potency
# [19] = target: T5, Corticotropin-releasing factor receptor 2/Corticotropin-releasing factor-binding protein (Homo sapiens, UniProt P24387+Q13324); assay: activators of CRF receptor 2 with binding protein – uHTS hits, confirmation (AID 602473); type: functional; conditions: read-out: EC50_Mean
# T5 sequence (Q13324 whole entry): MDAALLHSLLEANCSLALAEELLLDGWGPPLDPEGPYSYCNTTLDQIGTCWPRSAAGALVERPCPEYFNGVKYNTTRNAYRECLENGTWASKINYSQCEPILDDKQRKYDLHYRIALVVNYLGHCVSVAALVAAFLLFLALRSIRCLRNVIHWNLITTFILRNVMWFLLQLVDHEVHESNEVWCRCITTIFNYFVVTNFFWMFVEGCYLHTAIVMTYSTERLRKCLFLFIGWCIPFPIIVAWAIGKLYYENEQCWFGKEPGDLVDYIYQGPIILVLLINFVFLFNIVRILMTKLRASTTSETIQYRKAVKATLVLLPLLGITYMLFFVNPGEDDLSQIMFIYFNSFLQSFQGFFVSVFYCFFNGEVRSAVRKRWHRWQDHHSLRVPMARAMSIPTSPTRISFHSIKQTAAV
# T5 sequence (P24387 whole entry): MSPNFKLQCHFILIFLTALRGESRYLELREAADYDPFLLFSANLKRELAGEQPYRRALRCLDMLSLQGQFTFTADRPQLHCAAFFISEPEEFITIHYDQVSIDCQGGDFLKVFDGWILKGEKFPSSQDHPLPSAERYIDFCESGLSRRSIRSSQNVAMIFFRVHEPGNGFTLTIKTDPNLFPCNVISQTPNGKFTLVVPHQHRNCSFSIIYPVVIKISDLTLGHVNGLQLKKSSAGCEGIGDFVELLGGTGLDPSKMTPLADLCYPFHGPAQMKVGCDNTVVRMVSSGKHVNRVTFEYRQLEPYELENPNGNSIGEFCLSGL
structure (smiles),measurement,setting,value
CC(C)c1ccccc1NC(=O)COC(=O)CCN1C(=O)/C(=C\C=C\c2ccccc2)SC1=S,EC50,[1],1.54 µM (active)
same,EC50,[2],27.8 µM (active)
same,EC50,[3],7.14 µM (active)
CCCCN1C2=NCCCN2c2cc(C)c(C)cc21,AC50,[4],0.803 µM (active)
same,AC50,[5],4.56 µM (active)
CCn1c(=N)c(S(=O)(=O)c2ccc(F)cc2)cc2c(=O)n3ccccc3nc21,EC50,[6],26.2 µM (inconclusive)
same,EC50,[7],7.64 µM (active)
same,AC50,[8],10 µM (inconclusive)
same,AC50,[9],22.4 µM (inconclusive)
O=C1NC(=O)C(=Cc2coc3ccccc3c2=O)C(=O)N1,IC50,[10],15.1 µM (active)
same,IC50,[11],> 100 µM (active)
CCOc1cc(/C=C/c2cccc[n+]2C)ccc1OCC(=O)Nc1ccc(C)cc1,EC50,[6],> 300 µM (not active)
same,EC50,[7],> 300 µM (not active)
CC(C)(C)C(=O)/C(=C\c1ccc([N+](=O)[O-])cc1)n1cncn1,EC50,[12],5.77 µM (active)
same,EC50,[13],> 112 µM (not active)
same,EC50,[14],1.58 µM (active)
same,EC50,[15],1.29 µM (active)
Cc1ccc(-c2c[nH]c(SCCNC(=O)c3ccco3)n2)cc1,AC50,[16],2.88 µM (active)
O=C(Nc1ccccc1)c1cccc(S(=O)(=O)NC2CCCC2)c1,IC50,[10],13.2 µM (active)
CCCCCCCCN1[C@@H](CC(=O)O)c2ccc(C(F)(F)F)cc2S1(=O)=O,IC50,[10],18.2 µM (active)
O=C(N/N=C/c1ccc(Cl)cc1)c1cc(-c2cccnc2)nc2ccccc12,EC50,[1],> 120 µM (not active)
same,EC50,[2],12.8 µM (active)
same,EC50,[3],9.23 µM (active)
Cc1c(NC(=S)N/N=C/c2ccc([N+](=O)[O-])cc2O)c(=O)n(-c2ccccc2)n1C,IC50,[17],5.14 µM (active)
CN(C)c1ccc(N)cc1,AC50,[18],15.8 µM (inconclusive)
Cc1cccc(/C=C\c2ccccc2)n1,AC50,[18],15.8 µM (inconclusive)
CC(=O)c1cc2c(cc1O)OC(C)(C)C=C2,AC50,[18],31.6 µM (inconclusive)
C=C[C@@](C)(O)CC[C@@H]1[C@@]2(C)CCCC(C)(C)[C@@H]2CC[C@@]1(C)O,AC50,[18],10 µM (inconclusive)
CC1=CC(=C(C#N)c2nc3ccccc3s2)C=C(C)N1CC1CCCO1 (centres undefined),EC50,[6],13.5 µM (inconclusive)
same,EC50,[7],12.3 µM (inconclusive)
same,EC50,[19],14.7 µM (active)
COc1ccc(-c2coc3cc(O)ccc3c2=O)c(OC)c1 [2'-METHOXYFORMONETIN],AC50,[18],39.8 µM (inconclusive)
Nc1cc(Cl)cc(C(=O)O)c1Cl [CHLORAMBEN],AC50,[18],25.1 µM (inconclusive)
Cc1cc(O)c(C=O)c(O)c1C(=O)O [HAEMATOMMIC ACID],AC50,[18],25.1 µM (inconclusive)
